According to PMC9607644, “Glycoconjugation of Quinoline Derivatives Using the C-6 Position in Sugars as a Strategy for Improving the Selectivity and Cytotoxicity of Functionalized Compounds” (Molecules, 2022):

How the values were obtained:
HCT-116 cells [1] = assay: Wound healing assay, HCT-116; assay type: cell-based, human; settings: IC50 concentration, observed for 72 h
Experimental: (§1) This experiment consisted in making a “wound” in a confluent monolayer of HCT-116 and MCF-7 cells, which were next treated with the test compounds at their IC50 concentrations. […] In the control, cell migration from the edges of the wound is visible, gradually filling the gap. After 72 h, the wounds are almost completely covered with cells. In the same way, cell migration is observed in healthy NHDF cells.
(§2) To analyze the migration properties of cells exposed to test compounds, a wound-healing assay was performed as reported in the literature. The cells were seeded into 6-well plates at a density of 3 × 10^5 (HCT-116) or 4 × 10^5 (MCF-7, NHDF-Neo) per well (3 mL) and allowed to attach for 24 h under standard conditions with 5% CO2 at 37 °C. After forming a confluent monolayer, a linear scratch in each sample with a 200 µL pipette tip was made and the first photo at time zero was taken. The cells were washed with PBS and then treated with solutions of test compounds in a fresh medium at a dose equal to their IC50 values. Control cells were grown with fresh medium supplemented with 0.5% DMSO. The cells were incubated and monitored for 72 h under standard conditions with 5% CO2 at 37 °C. Cell monitoring and photos were taken using Live Cell Movie Analyzer, JuLI™ Br & FL (NanoEnTek Inc., Seoul, Korea).

MCF-7 cells = assay: Wound healing assay, MCF-7; assay type: cell-based, human; settings: IC50 concentration, observed for 72 h
Experimental: as §1, §2

NHDF-Neo cells = assay: MTT cytotoxicity assay, NHDF-Neo; assay type: cell-based; settings: Homo sapiens, incubation time 72 h
Experimental: An in vitro biological test package was performed for the obtained derivatives. All newly synthesized compounds were assessed for their cytotoxic activity against human cell lines with increased GLUT expression: the colon cancer cell line (HCT-116) and the breast cancer cell line (MCF-7), as well as on normal human dermal fibroblasts cells (NHDF-Neo), using the MTT assay (3-(4,5-dimethylthiazol-2-yl)-2,5-diphenyltetrazolium bromide). The MTT test is a colorimetric method for detecting proliferating cells. It is based on the ability of the enzyme mitochondrial dehydrogenase to convert yellow tetrazole salt (MTT) into purple formazan. The amount of the product formed in the reaction, determined spectrophotometrically, is proportional to the number of living cells. The antiproliferative activity was expressed as the concentration that caused 50% inhibition of the growth of the population of cells treated with the test compounds relative to the control cells (inhibitory concentration activity—IC50). Table 1 and Table 2 summarize the IC50 values calculated for all tested compounds.
The in vitro cytotoxicity of the test compounds was determined by the MTT (3-[4,5–dimethylthiazol-2-yl]-2,5-diphenyltetrazolium bromide) test (Sigma-Aldrich, Taufkirchen, Germany) according to the manufacturer’s protocol. At the beginning, for each cell line were determined the optimal seeding densities to ensure exponential growth throughout the experimental period. The confluent layer of cells were trypsinized, collected, and suspended in a growth medium. The cell suspension were then seeded into 96-well plates at a density of 1 × 10^4 or 2 × 10^3 (HCT-116) or 5 × 10^3 (MCF-7, NHDF-Neo) per well and incubated for 24 h under standard conditions (5% CO2, 37 °C). Then, the culture medium was replaced with solutions of different concentrations of test compounds in a fresh medium. Stock solutions of test compounds were prepared in DMSO and diluted to final concentrations with appropriate volumes of the growth medium directly before the experiment. Cells suspended in a medium supplemented with 0.5% DMSO (the amount of DMSO necessary to dissolve the highest dose of the respective sample) were used as a control of the experiment. […] The compound-treated cells were incubated for a further 24–72 h. After that, the medium was removed and the MTT solution (50 µL, 0.5 mg/mL in PBS) was added into each well and incubated for another 3 h under standard conditions (5% CO2, 37 °C). After this time, the MTT dye was carefully removed, and the acquired formazan crystals were dissolved by DMSO (Chempur, Piekary Śląskie, Poland). The proliferation was evaluated by measuring the formazan product’s absorbance at a wavelength of 570 nm with a microplate spectrophotometer (Epoch, BioTek, Winooski, VT, USA). All experiments were conducted in triplicate with four technical repeats for each tested concentration. Results were expressed as the percentage change in the viability of the test cells relative to the untreated control cells and calculated as the inhibitory concentration (IC50). The IC50 values were defined as the drug concentration that was necessary to reduce cell proliferation to 50% of the untreated control and this parameter was calculated using CalcuSyn software (version 2.0, Biosoft, Cambridge, UK). The results are expressed as the average value ± standard deviation (SD).

HCT-116 cells [2] = assay: Annexin V-FITC/PI apoptosis flow cytometry, HCT-116; assay type: cell-based, human; settings: IC50 dose, 24 h
Text: Apoptosis is a natural biological process involving programmed cell death and plays an important role in maintaining correct homeostasis between cell proliferation and cell death. This is in contrast to necrosis, which is accompanied by acute inflammation, preceded by cell degradation due to the loss of the integrity of the cell membrane. It is possible to distinguish viable cells from apoptotic and necrotic cell fractions using Annexin V-FITC and Propidium Iodide (PI). Annexin V-FITC labels phosphatidylserine residues that, after the start of apoptosis, are located on the outer surface of the cell membrane, enabling the identification of cells in the early stages of apoptosis. PI binds stoichiometrically to intracellular DNA during late apoptosis and necrosis when the cell membrane has been damaged. This combination allows for the differentiation of early apoptotic (A+/P−), late apoptotic (A+/P+), necrosis (A−/P+), and normal (A−/P−) cells that can be quantified by flow cytometry.
The cell cycle and the type of cell death induced by the test compounds were measured by using flow cytometry according to the manufacturer’s protocol. […] Control cells were grown with fresh medium supplemented with 0.5% DMSO. After 24 h of incubation, the cells were collected by trypsinization. Then, samples were centrifuged (3 min, 2000 rpm, RT) and washed with PBS, after which the cells were centrifuged again (3 min, 2000 rpm, RT) and the supernatant was carefully removed. The resulting precipitate contained cells, which were used for flow cytometry experiments.
The fraction of dead cells after treatment with the test compounds were detected using the FITC Annexin-V Apoptosis Detection Kit with PI (BioLegend, San Diego, CA, USA). […] 250 μL of the Annexin-V Binding Buffer was then added and the samples were incubated in the dark on ice for 15 min.

Question: What does the source list for `CC(=O)OC1O[C@H](Cn2cc(COc3cccc4cccnc34)nn2)[C@@H](OC(C)=O)[C@H](OC(C)=O)[C@H]1OC(C)=O` (stereo partly shown) [Compound A-1]?
Answer: cell migration, HCT-116 (HCT-116 cells [1]): significantly slower migration; cell migration, MCF-7 (MCF-7 cells): significantly slower migration; IC50 (NHDF-Neo cells): 130 ± 1.49 µM; apoptotic cells, HCT-116 (HCT-116 cells [2]): 29%

Question: `OC1O[C@H](Cn2cc(COc3cccc4cccnc34)nn2)[C@@H](O)[C@H](O)[C@H]1O` (stereo partly shown) [Compound A-2] was tested. Which “cell migration, HCT-116” value (HCT-116 cells [1]) did it give?
Answer: The value was “significantly slower migration”.

Question: And the “cell migration, MCF-7” value (MCF-7 cells)?
Answer: The value was “significantly slower migration”.

Question: And the IC50 (NHDF-Neo cells)?
Answer: Its IC50 is 317 ± 9.46 µM.

Question: What about the “apoptotic cells, HCT-116” value (HCT-116 cells [2]) of the same molecule?
Answer: Its value is 46%.

Question: How did the IC50 (NHDF-Neo cells) turn out when `O[C@@H]1[C@@H](O)[C@@H](O[C@H]2O[C@H](Cn3cc(COc4cccc5cccnc45)nn3)[C@@H](O)[C@H](O)[C@H]2O)O[C@H](Cn2cc(COc3cccc4cccnc34)nn2)[C@H]1O` [Compound D-2] was run?
Answer: The IC50 was 70.7 ± 0.75 µM.

Question: And the “apoptotic cells, HCT-116” value (HCT-116 cells [2])?
Answer: The value was 87%.

Question: With `CC(=O)OC[C@H]1O[C@@H](n2cc(COc3cccc4cccnc34)nn2)[C@H](OC(C)=O)[C@@H](OC(C)=O)[C@@H]1OC(C)=O` [Compound E-1, reference compound] as the molecule, how does the IC50 (NHDF-Neo cells) read?
Answer: The IC50 was 55.3 ± 5.08 µM.

Question: And the “apoptosis induction in words, HCT-116” value (HCT-116 cells [2])?
Answer: The value was “did not induce apoptosis”.

Question: Which IC50 (NHDF-Neo cells) does the source give for `OC[C@H]1O[C@@H](n2cc(COc3cccc4cccnc34)nn2)[C@H](O)[C@@H](O)[C@@H]1O` [Compound E-2, reference compound] here?
Answer: Its IC50 is 233 ± 9.44 µM.
